Row | Compound | boiling point | log10 vapour pressure (mmHg) | melting point | also measured
1 | Clc1cccc2ccccc12 | 259 °C | -1.54 | -2.5 °C | log10 Henry constant (atm·m³/mol): -3.45; log10 Koa: 5.8; ready biodegradability: not readily biodegradable
2 | CCOCCC#N | 154 °C |  |  | 
3 | CCCCC |  | 2.71 | -130 °C | log10 Henry constant (atm·m³/mol): 0.0969; log10 Koa: 1.96; log10 biodegradation half-life (days): 0.699; ready biodegradability: readily biodegradable
4 | CC(C)CC(C)N (centres undefined) | 109 °C |  |  | log10 Henry constant (atm·m³/mol): -4.51
5 | C[Si]1(C)O[Si](C)(C)O[Si](C)(C)O[Si](C)(C)O[Si](C)(C)O[Si](C)(C)O[Si](C)(C)O[Si](C)(C)O1 | 290 °C | -2.54 | 31.5 °C | 
6 | CC(CCO)CCCC(C)(C)O (centres undefined) | 265 °C |  |  | 
7 | CCCC(C)CBr (centres undefined) | 141 °C |  |  | 
8 | CCOC(=O)C(Cl)Cc1cc(-n2nc(C)n(C(F)F)c2=O)c(F)cc1Cl (centres undefined) | 352 °C | -6.92 | -22.1 °C | 
9 | O=CN1CCCCC1 | 222 °C |  |  | 
10 | CCCCCCCCCCC(C)=O | 246 °C | -1.69 | 21 °C | 
11 | O=[N+]([O-])CCCl | 174 °C |  |  | 
12 | BrCC(Br)c1ccccc1 (centres undefined) |  | -1.97 | 75 °C | 
13 | O=S=Nc1ccccc1 | 200 °C |  |  | 
14 | Clc1ccc(-c2ccc(Cl)c(Cl)c2)cc1 |  |  |  | log10 Henry constant (atm·m³/mol): -4
15 | NNc1c(Cl)cc(Cl)cc1Cl |  |  |  | ready biodegradability: not readily biodegradable
16 | COC(=O)c1ccccc1S(=O)(=O)NC(=O)N(C)c1nc(C)nc(OC)n1 |  | -9.41 | 141 °C | log10 Henry constant (atm·m³/mol): -13; log10 Koc (L/kg): 1.72
17 | Oc1ccccc1Cc1ccccc1O |  |  |  | ready biodegradability: not readily biodegradable
18 | Cc1ccc(N(SC(F)(Cl)Cl)S(=O)(=O)N(C)C)cc1 |  | -5.82 | 96 °C | 
19 | C/C=C(/C)C(C)C | 89.9 °C |  | -121 °C | 
20 | CC(CN(C)C)CN1c2ccccc2CCc2ccccc21 (centres undefined) |  |  | 45 °C | 
21 | COc1ccc(C(=O)c2cccc(C)c2)cc1C |  |  | 62.3 °C | 

Row | Compound | boiling point | log10 vapour pressure (mmHg) | melting point | also measured
22 | COc1cccc(OC)c1 | 218 °C |  | -52 °C | ready biodegradability: readily biodegradable
23 | CCOCCOCCO | 196 °C | -0.9 | -76 °C | 
24 | C1=CCCC=CCC1 | 151 °C | 0.695 | -56.4 °C | 
25 | COc1ccc2c(=O)c3ccccc3oc2c1CN1CCCCC1 |  |  | 160 °C | 
26 | CN1[C@H]2CC[C@@H]1[C@@H](C(=O)O)[C@H](O)C2 |  |  | 205 °C | 
27 | CC(=O)NCc1c(I)c(NC(C)=O)c(I)c(C(=O)O)c1I |  |  | 255 °C | 
28 | NC(=O)/C=C/C(=O)[O-] |  |  | 172 °C | 
29 | O=C(O)c1ccccc1-c1ccccc1C(=O)O |  |  | 234 °C | ready biodegradability: readily biodegradable
30 | Cc1ccno1 | 122 °C |  |  | 
31 | CCCCOCC | 92.3 °C | 1.71 | -124 °C | 
32 | O=C(O)CCCCCCCCCCCCC(=O)O |  |  | 127 °C | ready biodegradability: readily biodegradable
33 | C=C(C)CCC(C)=O | 150 °C |  |  | 
34 | O=S(=O)(O)c1ccccc1 |  |  | 65 °C | ready biodegradability: readily biodegradable
35 | FC(F)(Cl)Br | -3.7 °C | 3.31 | -160 °C | 
36 | Nc1cc(S(N)(=O)=O)ccc1S(=O)(=O)CCCO |  |  | 137 °C | 
37 | NC(=S)NS(=O)(=O)c1ccc(N)cc1 |  |  | 182 °C | 
38 | CC(CNC1CCCCC1)OC(=O)c1ccccc1.Cl (centres undefined) |  |  | 178 °C | 
39 | O=C(CCl)c1cccc([N+](=O)[O-])c1 |  | -5.06 |  | 
40 | COCCc1ccccn1 | 203 °C |  |  | 
41 | O=[N+]([O-])c1ccccc1Cl |  |  |  | ready biodegradability: not readily biodegradable; log10 BCF (fish): 1.17; log10 biotransformation half-life (days) (fish): -0.58
